Data set [1] can be described thus: physchem. The conditions noted are these: pH 7.4, aqueous buffer, thermodynamic from solid.
Protocol: To investigate this special property of the complexes, 50 mg of complex containing the basic drug was dissolved in 25 ml of phosphate buffer 0.1 M, pH 7.4. 100 μl samples were taken from this solution and measured for 1-96 hours depending on the complex being investigated. […] Solid drug particles with and without cyclodextrin were also weighed and placed in the buffer to show the difference in solubility between samples of the drug alone, drug and cyclodextrin in a standard mixture, and drug in complex with cyclodextrin.
The solid complexes were heated in a vacuum oven for 4 days at 88° C. and 0.13×10^2 Pa. Each complex contained about 0.2 equivalents of acetic acid. A 50 mg sample of each complex was dissolved in 25 ml of the buffer. […] 12 mg of solid Basic drug A particles were also dissolved in 50 ml of the buffer with or without 38 mg of HPβCD to show the effect of complexing.
Data set [2] is described as follows: Stability of the drug in complexes during heating in the vacuum oven (HPLC). The data set is classed as physicochemical. The conditions noted are these: complexes heated at 90° C. for several days.
Protocol: All solutions were lyophilized, then the obtained complex was sieved through a 300 μm sieve and heated in a vacuum oven at 60-90° C. for several days, depending on the drug being investigated.
The amount of drug per gram sample was determined on a high performance liquid chromatographic (HPLC) component system, consisting of ConstaMetric 3200 solvent delivery system operated at 1.5 ml/min, a SpectroMonitor 3200 UV/VIS variable-wavelength detector, a Merck-Hitachi AS-2000A autosampler, Merck Hitachi D-2500 Chromato-Integrator and a Phenomex ODS 5 μm (150×4.6 mm) column.
Selected Basic drug A complexes were analysed after heating in the vacuum oven at 90° C. for several days.

≈ marks a conversion by molar mass, not a printed value.

Here are results for one molecule from US20040242538A1, “Method to improve complexation efficacy and produce high-energy cylodextrincomplexes” (priority 2001, published 2004).

What is called solubility is the dissolved amount per volume that the medium holds. High values mean much dissolved substance, low ones little dissolved substance.

`Cc1ccc(N2CCN(C)CC2)c2c1CC[C@@H](NC(=O)c1ccc(N3CCOCC3)cc1)C2` [Basic drug A, (R)-N-[5-methyl-8-(4-methylpiperazin-1-yl)-1,2,3,4-tetrahydro-2-naphthyl]-4-morpholinobenzamide] gave a solubility in data set [1] of 34 µg/mL (≈ 75.8 µM). The “stability during heating in the vacuum oven” value in data set [2] is given as “stable during heating in the vacuum oven”.
